# Reference: PMC5622107, “Small molecule inhibition of cGAS reduces interferon expression in primary macrophages from autoimmune mice” (Nature Communications, 2017)
# Where two headings read alike, the source gives them in different places.
# What was measured:
# RAW 264.7 = assay: Cytotoxicity, CellTiter-Glo ATP quantitation at 72 h; type: cell-based
# Procedure: Small-molecule compounds were serially diluted to concentrations spanning the range tested in the response curves were added to 6.7 × 10^5 RAW-Blue macrophages plated 16 h prior in 96-well dishes, then harvested 72 h after compound addition. ATP was measured using CellTiter Glo Viability Assay (Promega) using 50 µM Tamoxifen (Sigma) as a positive control for cytotoxicity. Viability values were generated using vehicle (DMSO) or the first dose (RU.521) as 100% and Tamoxifen as 0%. Outliers were removed as described previously.
# [1] = system: cGAS activity in dsDNA-stimulated RAW macrophages; assay: Cellular luciferase assay, interferon-responsive reporter in dsDNA-stimulated RAW macrophages; type: cell-based; details: Mus musculus, Macrophage, dsDNA-activated RAW cells
# Procedure: (§1) The sequence and annealing conditions of the dsDNA used is described above. Typically, 0.4 µg or 0.6 µg of dsDNA was used to stimulate RAW-Lucia ISG-KO-TREX1/ISG-KO-cGAS or RAW-Lucia ISG cells, respectively, which equated to 90% of maximal luciferase activity observed. dsDNA stimulation of RAW macrophages and subsequent luciferase measurements were performed with or without the addition of small molecules at indicated concentrations in each figure, or with DMSO as vehicle control. For the dose curve experiments, serial dilutions of inhibitors were applied to 6.7 × 10^5 cells, plated in 24-well dishes, and co-stimulated with 0.4 µg of dsDNA. In subsequent experiments using inhibitors in RAW cells, the small molecules were used at concentrations representing the derived EC75 values, while co-stimulated with one of the following: 0.4 µg dsDNA, 50 nM 5′ppp-HP20 hairpin RNA (a kind gift from Dr Anna Pyle, Yale University; sequence located in Supplementary Table 5), 10 µM cGAMP, or 100 U ml^−1 murine recombinant Ifnb (R&D Systems). dsDNA was transfected using Lipofectamine LTX. 5′ppp-HP20 RNA was transfected using Lipofectamine 2000. Cells were harvested 24 h post-transfection, washed with PBS, and lysed in 1× Luciferase Cell Lysis Buffer (Pierce).
# (§2) The minimum numbers of biological and technical replicates for the luciferase assays were two and three, respectively. Analysis of luminescence values were evaluated for outliers (one standard deviation above and below the mean) for each biological replicate, and the resulting means were used to generate graphs in GraphPad Prism (v. 7.0c); where applicable, an unpaired t-test with Welch’s correction was used to compare the results of each individual compound to dsDNA or other stimulant. The experimental variances observed within control samples (untreated or vehicle) and treated samples were similar.
# [2] = system: RAW macrophage cells stimulated with 5′ppp-HP20 RNA, Pam3CSK4, poly(I:C), LPS or recombinant Ifnb; assay: Selectivity: RAW macrophages stimulated with non-DNA immunogenic ligands (luciferase reporter or Il-6 qRT-PCR); type: cell-based, mouse; details: compound at EC75; 5′ppp-HP20 RNA, Pam3CSK4, poly(I:C), LPS, Ifnb
# Procedure: as §1, §2
# The small molecules were used at concentrations representing the EC75 values and were co-stimulated with either 200 ng Pam3CSK4 (Invivogen), 25 µg poly(I:C) or 100 ng lipopolysaccharide (Sigma-Aldrich) at the cell counts and conditions previously described for the cellular luciferase assays. Cells were harvested 24 h post-transfection, washed with PBS, and RNA was extracted using Trizol (Ambion) and chloroform (Sigma-Aldrich). In all, 1–2 µg of total RNA was reverse-transcribed using random hex primers and SuperScript III (Life Technologies) into cDNA. […] The expression of mRNAs […] murine Actb1 and Il-6 were measured (see Supplementary Table 5 for primer sequences used). Target C T values were normalized to Actb1 C T values and used to calculate ΔC T. mRNA expression of target genes were then calculated using the ΔΔC T method (2^ΔΔCT). Expression values were analyzed as described in the method for cellular luciferase assays.
# mouse cGAS = target: T1, mouse cGAS (Mus musculus, UniProt Q8C6L5); assay: RapidFire mass spectrometry (RF-MS) cGAS enzymatic assay, cGAMP product formation; type: biochemical; details: for IC50: read-out: IC50; for inhibition at 12.5 µM: compound 12.5 µM, read-out: % inhibition at 12.5 µM
# T1 construct: recombinant full-length mouse cGAS in reaction buffer; His6-SUMO (N, cleaved yes); made in house; host or cells: E. coli BL21(DE3) RIL
# Procedure: The liquid was collected at the well bottom using centrifugation for 30 s at 180×g. […] Plates were centrifuged for 30 s at 180×g to collect all liquid at the bottom of the wells. […] The reaction was stopped by addition of 65 µl of 0.5% (v/v) formic acid per well. The plates were centrifuged for 30 s at 180×g and sealed with a Velocity11 PlateLoc thermal plate sealer.
# The solvent used for loading/washing process was an aqueous solution of 5 mM ammonium acetate, pH 10. […] Each sample of approximately 35 µl were aspirated from a 384-well plate and separated using a Graphitic carbon Type D cartridge. After each sample was loaded onto the cartridge it was washed for 4 s at 1.5 ml min^−1 using the aqueous solvent. ATP, GTP and cGAMP were eluted for 5 s using the organic solvent at a flow rate of 1.5 ml min^−1. The cartridge was then re-equilibrated with the aqueous solvent for 5 s at a flow rate of 1.5 ml min^−1. All samples were analyzed using a negative ionization mode in the mass spectrometer, with a gas temperature of 350 °C, nebulizer pressure of 35 psig, gas flow rate of 15 l min^−1. […] The Agilent RapidFire Integrator software was used to calculate the area under the curve (AUC) of the extracted ion counts for each analyte. Data points represent values of product formation. Catalytic rates expressed as percent product formation were calculated using the AUC of cGAMP and using the AUC’s of ATP and GTP to normalize for variations in the capacity of the solid phase extraction column during a screening run, as shown in the following formula: product formation (%) = [(AUCcGAMP × 100)/(AUCcGAMP + ½ AUCATP + ½ AUCGTP)].
# To determine the percent inhibition of mouse cGAS the data was normalized against the positive control (column 24) and negative control (column 23). […] The quality of the screen was assessed by Z′ factor[57] calculated as follows: Z′ = 1−[3∗(standard deviation positive control + standard deviation negative control)/(average positive control—average negative control)].
# 45-bp dsDNA = assay: DNA intercalation: acridine orange displacement from dsDNA by fluorescence polarization; type: binding; details: Supplementary Table 2; for Polarization: compound 30 µM
# Procedure: Ten microliters of HEN buffer (10 mM HEPES pH 7.5, 1 mM EDTA pH 7.5, 100 mM NaCl) were dispensed per well using a Thermo Multidrop Combi dispenser (Thermo Scientific). The liquid was collected at the well bottom using centrifugation for 30 s at 180×g. […] The final concentration of compounds in the assay was 30 µM. […] The liquid was collected at the well bottom using centrifugation for 30 s at 180×g. […] The liquid was collected at the well bottom using centrifugation for 30 s at 180 × g and the plates were incubated for 30 min. Mitoxantrone, a known DNA intercalator was used at 50 µM as a positive control, while DMSO alone was used as negative control. FP was measured using a Biotek Synergy Neo plate reader. […] All FP values are expressed in millipolarization (mP) units. The mP values were calculated using the equation mP = 1000 × [(I S−I SB)−(I P−I PB)]/[I S—I SB) + (I P−I PB)], where I S and […] to the parallel and perpendicular emission intensity, respectively, and I SB and I SP corresponds to parallel emission intensity perpendicular emission intensity of the buffer, respectively. The experimental G-factor, defined as G = I S/I P, was set to 1.0 in all experiments.
# IFNB1-Luc activity = assay: Interferon induction cellular assay (IFNB1-Luc) of the original manuscript version, reported in the point-by-point response; type: cell-based; details: original Fig. 5a, compared with vehicle
# [3] = target: cGAS (cyclic GMP-AMP synthase) (mouse, UniProt Q8C6L5 147-507); assay: X-ray crystallography, 2.13 A; RU.365 in active site; Co-crystallization; crystallization buffer not in the material; protein stock 20 mM Tris-HCl pH 7.5, 300 mM NaCl, 1 mM DTT. ITC values are for inhibitors, and t; details: protein: recombinant; tags: His6-SUMO removed by ULP1; chain copies: 2; 16 bp plus 1-nt 5' overhang at each end
# [4] = Fig. 1e, four prioritized screening hits, confirmed with independent lots of compound
# [5] = Supplementary Table 2, batch of compounds stored in the screening library
# T1 sequence (Q8C6L5 whole entry): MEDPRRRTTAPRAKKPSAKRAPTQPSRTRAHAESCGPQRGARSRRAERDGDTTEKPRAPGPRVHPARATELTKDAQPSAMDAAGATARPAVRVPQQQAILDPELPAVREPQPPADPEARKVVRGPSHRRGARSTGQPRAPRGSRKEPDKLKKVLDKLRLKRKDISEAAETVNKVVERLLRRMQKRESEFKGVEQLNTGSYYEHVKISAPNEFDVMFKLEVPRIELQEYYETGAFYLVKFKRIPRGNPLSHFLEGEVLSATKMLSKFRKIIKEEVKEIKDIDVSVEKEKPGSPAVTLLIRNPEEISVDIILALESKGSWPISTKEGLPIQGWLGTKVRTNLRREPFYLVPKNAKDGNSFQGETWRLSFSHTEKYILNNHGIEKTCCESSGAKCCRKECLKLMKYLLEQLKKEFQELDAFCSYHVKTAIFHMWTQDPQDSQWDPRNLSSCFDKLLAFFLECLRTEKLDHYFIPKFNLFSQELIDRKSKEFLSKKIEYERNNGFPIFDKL
# cGAS (cyclic GMP-AMP synthase), sequence (Q8C6L5 147-507): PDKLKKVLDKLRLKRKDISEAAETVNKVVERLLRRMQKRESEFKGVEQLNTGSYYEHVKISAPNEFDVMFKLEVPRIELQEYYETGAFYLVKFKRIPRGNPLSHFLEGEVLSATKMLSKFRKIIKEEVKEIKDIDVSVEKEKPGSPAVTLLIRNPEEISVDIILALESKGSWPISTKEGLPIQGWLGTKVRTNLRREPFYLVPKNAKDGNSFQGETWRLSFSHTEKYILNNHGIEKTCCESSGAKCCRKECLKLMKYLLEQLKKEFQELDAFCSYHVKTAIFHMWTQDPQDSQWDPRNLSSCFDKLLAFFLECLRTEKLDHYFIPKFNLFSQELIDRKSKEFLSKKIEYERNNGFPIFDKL
Molecule,IC50 (mouse cGAS; [4]) [nM],IC50 (mouse cGAS; [5]) [nM],inhibition at 12.5 µM (mouse cGAS; Supplementary Table 2) [%],Polarization (45-bp dsDNA) [mP],IFNB1-Luc activity (IFNB1-Luc activity),other results
Cc1nn(-c2nc3ccccc3s2)c(O)c1C1OC(=O)c2ccccc21 (stereo not drawn) [RU281332],–,–,–,–,–,"LD50 over cellular IC50 (RAW 264.7): 3.5 fold; LD50 (RAW 264.7; RAW macrophages, 72 h, percent viability, listed as RU.332): 48 µM; IC50 [1]: 13600 nM; suppression of activation by immunogenic stimuli other than dsDNA [2]: inhibited the activation of cells by most of the immunogenic ligands tested; IC50 (mouse cGAS; Supplementary Table 3, analogs more potent than RU166365): 1790 nM; effect of structural modification on cGAS inhibitory potency (mouse cGAS; compared with RU.365): did not change the potency"
O=C1N=C(N2CCCCC2)SC1=C1C(=O)Nc2ccccc21 [RU100840],30,60,88,269,mild activation,% intercalation at 30 µM (45-bp dsDNA; acridine orange displacement compared to mitoxantrone): -8.9%
O=C(COc1ccc(Cl)c2ccccc12)Nc1ncccc1O [RU191752],70,170,95,276,mild activation,–
crystal dsDNA (dsDNA) DNA 1: AAATTGCCGAAGACGAA DNA 2: TTTCGTCTTCGGCAATT,–,–,–,–,–,binding result [3]: binds
